Source: US9376382B2, “N-substituted isopropyldimethyl azulene sulfonamide derivatives, and preparation method and use thereof” (Sichuan Guokang Pharmaceutical Co., Ltd., priority 2011, dated 2016)

What was measured:
[1] = tested on: ethanol-induced gastric ulcer; assay: Anhydrous ethanol-induced gastric ulcer in mice; type: in vivo, Kunming mice; parameters: key to Gastri ulcer score (X ± SD) / Ulcer score (X ± SD) / Gastric ulcer score (X ± SD): summed pathology score: congestion 1, hemorrhage/erosion 1, linear erosion 3; settings: for Inhibition rate (%) / Gastri ulcer score (X ± SD): Table 4; for Inhibition rate (%): inhibition rate of ulcer vs model group; for Gastri ulcer score (X ± SD): mice, intragastric once a day for five days, dose equimolar to azulene sulfonate sodium 3.0 mg/kg (Omeprazole 13.4 mg/kg), model group 13.00 ± 1.77; for anti-gastric ulcer effect in words: ethanol-induced gastric ulcer in mice, compared to the model group
Description: Kunming mice, half male and half female, weighing 18-22 g, provided by the West China Animal Center
(1) Azulene sodium sulphonate was added with 0.5% CMC to prepare a suspension with concentration of 0.15 mg/ml.
(2) 20 mg of Omeprazole was added with 0.5% CMC to prepare a suspension with concentration of 0.67 mg/ml.
Kunming mice were randomly grouped according the body weight (one model control group or negative control group, one Omeprazole control group or positive control group, one Azulene sodium sulphonate control group, twelve test drug groups), eight mice for each group, half male and half female.
Administration: Model control group was administrated intragastrically with 0.5% CMC solution at a dose of 0.4 ml/20 g; Omeprazole control group was administrated intragastrically with Omeprazole at a dose of 0.4 ml/20 g, Azulene sodium sulphonate control group and each test drug groups were administrated intragastrically with their respective drug at a dose of 0.4 ml/20 g. The mice in each group were administrated once a day for successive five days. 0.5 hour after final administration, the mice in each group were administrated intragastrically with 0.5 ml of anhydrous ethanol, one hour later the mice were executed and dissected, and their stomaches were taken, washed and scored according to the pathological degree. For local congestion and rubefaction, score was 1; for petechial hemorrhage or erosion, score was respectively 1, for each linear erosion, score was 3. Statistical analysis was performed. Ulcer scores were calculated, significant differences between the groups were compared and the inhibition rates of ulcer were calculated [Inhibition rate of ulcer=(ulcer score of model group−ulcer score of drug administration group)/ulcer score of model group].

[2] = Stability studies (light, humidity, heat), overall comparison; settings: summary of high-temperature, high humidity and intense light tests
Description: (§1) The test samples were open-stored in culture dishes at 60° C. for 10 days, and taken and detected on Day 5 and Day 10. • The characteristics, especially colour change were observed. • Melting points were measured by automatic melting point apparatus. • By self-reflection, TLC is used to observe whether the spot numbers were increased after 5 days and 10 days.
(§2) The test samples were open-stored in closed constant humidity desiccators under the condition of 25° C. and relative humidity of 90%+5% for 10 days, and taken and detected on Day 5 and Day 10. Meanwhile, each sample was accurately weighed before and after test.
(§3) The test samples were open-stored in “adjustable light boxes” under the conditions of illumination of 4500LX±500LX for 10 days, and taken and detected on Day 5 and Day 10 with regards to dry items. • The characteristics, especially colour change was observed. • Melting points were measured by an automatic melting point apparatus. • By self-reflection, TLC is used to observe whether the spot numbers were increased after 5 days and 10 days.

[3] = High-temperature test (60° C.), stability study; type: physicochemical; settings: open-stored; for Appearance Day 5: Day 5, cell wraps; for Appearance Day 5 / Appearance Day 10: first line given; for Appearance Day 10: Day 10, cell wraps;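 as to all read-outs here: samples kept uncovered in dishes at 60 °C for up to 10 days and examined on Day 5 and Day 10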
Description: as §1

[4] = High humidity test (25° C., relative humidity 90% ± 5%), stability study; type: physicochemical; settings: RH 90% ± 5%; for Appearance Day 0: Day 0, cell wraps; for Appearance Day 0 / Appearance Day 5 / Appearance Day 10: first line given; for Appearance Day 5: Day 5, cell wraps; for Appearance Day 10: Day 10, cell wraps;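 as to all read-outs here: samples kept uncovered in sealed humidity desiccators, appearance judged mainly by colour change, melting point on an automatic apparatus, TLC checked for extra spots versus start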
Description: as §2
The characteristics, especially colour change was observed.
Melting points were measured by an automatic melting point apparatus.
By self-reflection, TLC is used to observe whether the spot numbers were increased after 5 days and 10 days.

[5] = Intense light irradiation test (4500LX ± 500LX), stability study; type: physicochemical; settings: for Appearance Day 0: Day 0, cell wraps; for Appearance Day 0 / Appearance Day 5 / Appearance Day 10: first line given; for Appearance Day 5: Day 5, cell wraps; for Appearance Day 10: Day 10, cell wraps
Description: as §3

## Cc1cc(S(=O)(=O)Nc2cccc(Br)c2)c2c(C)ccc(C(C)C)cc1-2 [4a, N-(3-bromophenyl)-3,8-dimethyl-5-isopropyl-1-azulene sulfonamide]
[1]
  Inhibition rate (%): 51.31%
  Gastri ulcer score (X ± SD): 6.33 ± 4.50
  anti-gastric ulcer effect in words: significantly relieve the pathological degree
[2]
  light, humidity and heat stability in words: better light, humidity and heat stability than azulene sulfonate sodium
other
  melting point: 172 to 174 °C
[3]
  Melting point Day 0: 172.5-174.0 °C
  Spot numbers on TLC Day 0: 1
  Melting point Day 5: 172.0-173.5 °C
  Spot numbers on TLC Day 5: 1
  Appearance Day 5: purple
  Melting point Day 10: 172.5-174.0 °C
  Spot numbers on TLC Day 10: 1
  Appearance Day 10: purple
[4]
  Melting point Day 0: 172.5-174.0 °C
  Spot numbers on TLC Day 0: 1
  hygroscopic rate (%) Day 0: 1.01%
  Appearance Day 0: purple
  Melting point Day 5: 172.0-174.5 °C
  Spot numbers on TLC Day 5: 1
  hygroscopic rate (%) Day 5: 1.46%
  Appearance Day 5: purple
  Melting point Day 10: 172.0-174.5 °C
  Spot numbers on TLC Day 10: 1
  Appearance Day 10: purple
[5]
  Melting point Day 0: 172.5-174.0 °C
  Spot numbers on TLC Day 0: 1
  Appearance Day 0: purple
  Melting point Day 5: 172.0-175.0 °C
  Spot numbers on TLC Day 5: 1
  Appearance Day 5: purple
  Melting point Day 10: 173.0-174.0 °C
  Spot numbers on TLC Day 10: 1
  Appearance Day 10: purple

## COc1ccc(NS(=O)(=O)c2cc(C)c3cc(C(C)C)ccc(C)c2-3)c(OC)c1 [4b, N-(2,4-dimethoxyphenyl)-3,8-dimethyl-5-isopropyl-1-azulene sulfonamide]
[1]
  Inhibition rate (%): 52.77%
  Gastri ulcer score (X ± SD): 6.14 ± 2.85
  anti-gastric ulcer effect in words: significantly relieve the pathological degree
[2]
  light, humidity and heat stability in words: better light, humidity and heat stability than azulene sulfonate sodium
other
  melting point: 114 to 116 °C
[3]
  Melting point Day 0: 114.0-115.5 °C
  Spot numbers on TLC Day 0: 1
  Melting point Day 5: 114.5-116.0 °C
  Spot numbers on TLC Day 5: 1
  Appearance Day 5: purple
  Melting point Day 10: 113.5-115.0 °C
  Spot numbers on TLC Day 10: 1
  Appearance Day 10: purple
[4]
  Melting point Day 0: 114.0-115.5 °C
  Spot numbers on TLC Day 0: 1
  hygroscopic rate (%) Day 0: 0.97%
  Appearance Day 0: purple
  Melting point Day 5: 114.0-115.5 °C
  Spot numbers on TLC Day 5: 1
  hygroscopic rate (%) Day 5: 1.24%
  Appearance Day 5: purple
  Melting point Day 10: 114.0-115.5 °C
  Spot numbers on TLC Day 10: 1
  Appearance Day 10: purple
[5]
  Spot numbers on TLC Day 0: 1
  Appearance Day 0: purple
  Spot numbers on TLC Day 5: 1
  Appearance Day 5: purple
  Spot numbers on TLC Day 10: 1
  Appearance Day 10: purple

## Cc1cc(S(=O)(=O)Nc2cccc3ccccc23)c2c(C)ccc(C(C)C)cc1-2 [4d, N-(1-naphthyl)-3,8-dimethyl-5-isopropyl-1-azulene sulfonamide]
[1]
  Inhibition rate (%): 50.54%
  Gastri ulcer score (X ± SD): 6.43 ± 2.99
  anti-gastric ulcer effect in words: significantly relieve the pathological degree
[2]
  light, humidity and heat stability in words: better light, humidity and heat stability than azulene sulfonate sodium
other
  melting point: 140 to 142 °C
[3]
  Melting point Day 0: 140.0-142.5 °C
  Spot numbers on TLC Day 0: 1
  Melting point Day 5: 141.5-142.5 °C
  Spot numbers on TLC Day 5: 1
  Appearance Day 5: purple
  Melting point Day 10: 140.0-142.5 °C
  Spot numbers on TLC Day 10: 1
  Appearance Day 10: purple
[4]
  Melting point Day 0: 140.0-142.5 °C
  Spot numbers on TLC Day 0: 1
  hygroscopic rate (%) Day 0: 1.23%
  Appearance Day 0: purple
  Melting point Day 5: 140.0-142.5 °C
  Spot numbers on TLC Day 5: 1
  hygroscopic rate (%) Day 5: 1.61%
  Appearance Day 5: purple
  Melting point Day 10: 140.0-142.5 °C
  Spot numbers on TLC Day 10: 1
  Appearance Day 10: purple
[5]
  Melting point Day 0: 140.0-142.5 °C
  Spot numbers on TLC Day 0: 1
  Appearance Day 0: purple
  Melting point Day 5: 141.5-143.0 °C
  Spot numbers on TLC Day 5: 1
  Appearance Day 5: purple
  Melting point Day 10: 140.0-142.0 °C
  Spot numbers on TLC Day 10: 1
  Appearance Day 10: purple

## Cc1cc(S(=O)(=O)Nc2ccc(Cl)cc2)c2c(C)ccc(C(C)C)cc1-2 [4k, N-(4-chlorophenyl)-3,8-dimethyl-5-isopropyl-1-azulene sulfonamide]
[2]
  light, humidity and heat stability in words: better light, humidity and heat stability than azulene sulfonate sodium
other
  melting point: 134 to 135 °C
[3]
  Melting point Day 0: 134.5-135.0 °C
  Spot numbers on TLC Day 0: 1
  Melting point Day 5: 134.0-135.5 °C
  Spot numbers on TLC Day 5: 1
  Appearance Day 5: purple
  Melting point Day 10: 134.0-135.5 °C
  Spot numbers on TLC Day 10: 1
  Appearance Day 10: purple
[4]
  Melting point Day 0: 134.5-135.0 °C
  Spot numbers on TLC Day 0: 1
  hygroscopic rate (%) Day 0: 1.17%
  Appearance Day 0: purple
  Melting point Day 5: 134.5-135.5 °C
  Spot numbers on TLC Day 5: 1
  hygroscopic rate (%) Day 5: 1.87%
  Appearance Day 5: purple
  Melting point Day 10: 134.5-135.5 °C
  Spot numbers on TLC Day 10: 1
  Appearance Day 10: purple
[5]
  Melting point Day 0: 134.5-135.0 °C
  Spot numbers on TLC Day 0: 1
  Appearance Day 0: purple
  Melting point Day 5: 134.0-135.5 °C
  Spot numbers on TLC Day 5: 1
  Appearance Day 5: purple
  Melting point Day 10: 134.0-135.5 °C
  Spot numbers on TLC Day 10: 1
  Appearance Day 10: purple
